# Values of other authors, collected in patent US20170224670A1, “Drug Combination to Treat Melanoma” (Exelixis, Inc., priority 2014, published 2017).
# System: BRAF mutation-associated melanomas
# Conditions: from initial use, patients taking the drug
structure (smiles),measurement,value
CCCS(=O)(=O)Nc1ccc(F)c(C(=O)c2c[nH]c3ncc(-c4ccc(Cl)cc4)cc23)c1F [vemurafenib],"Time to development of resistance, on average",≤ 7 months
